US8071569B2, “Oxidized heparin fractions and their use in inhibiting angiogenesis” (priority 2002, dated 2011)

What was measured:
[1] = tested on: chick chorioallantoic membrane (CAM); test: FGF2-induced neovascularization on the chick chorioallantoic membrane (CAM); assay type: in vivo; details: FGF2 alone (filter disk, 1 μg/mL)
Experimental: In vivo neovascularization was examined by the method previously described by Auerbach et al. (Auerbach et al., J. Dev. Biol., 41:391-394 (1974), which is hereby incorporated by reference in its entirety). Ten-day old embryos were purchased from Spafas, Inc. (Preston, Conn.) and were incubated at 37° C. with 55% relative humidity. In the dark with the help of a candling lamp, a small hole was punctured in the shell concealing the air sac with a hypodermic needle. A second hole was punctured in the shell on the broadside of the egg directly over an avascular portion of the embryonic membrane, as observed during candling. A false air sac was created beneath the second hole by the application of negative pressure to the first hole, which caused the chorioallantoic membrane (CAM) to separate from the shell. […]
CAM tissue directly beneath FGF2-saturated filter disk was resected from embryos treated 48 hours prior with test compound or control. […] Digital images of CAM sections adjacent to filters were collected using a 3-CCD color video camera system (Toshiba America, New York, N.Y.) and analyzed using Image-Pro Plus software (Media Cybernetics, Silver Spring, Md.). Table 4 contains the number of vessel branch points contained in a circular region equal to the area of a filter disk counted for each section.

[2] = tested on: Human umbilical vein endothelial cells (HUVEC); test: Inhibition of FGF2-stimulated endothelial cell tube formation on Matrigel; assay type: cell-based; details: FGF2 alone 100 ng/ml, overnight
Experimental: Differentiation by endothelial cells was examined using a method developed by Grant et al. (Grant et al., In Vitro Cell Dev. Biol., 27A:327-336 (1991), which is hereby incorporated by reference in its entirety). Matrigel® matrix, phenol-red free (commercially available from Becton Dickinson, Bedford, Mass.) was thawed overnight at 4° C. Using cold pipette tips, 3.0 mg/well of Matrigel® matrix was placed in a cold twenty-four-multiwell plate (Falcon). Matrigel® matrix was allowed to polymerize during incubation at 37° C. for 30 minutes.
Human umbilical vein endothelial cells (HUVEC) were maintained at 37° C. with 5% CO2 and 95% humidity in endothelial cell growth medium with 2% fetal bovine serum (EGM). […]
Subsequently, the medium was aspirated and cells were fixed and stained using a modified HEMA-3 stain kit. Digital images of micro-titer well sections were collected using a DKC5000 3-CCD color video camera system (Toshiba America, New York, N.Y.) and analyzed using Image-Pro Plus software (Media Cybernetics, Silver Spring, Md.). The area and major axis length of stained cells having a tubular morphology was measured on the Matrigel® matrix surface (Becton Dickinson, Bedford, Pa.) counted from 5 images/well.

Colon tumor = test: CAM tumor implant model, colon tumor; assay type: in vivo, chick; details: 0.01 mg single dose over 7 days, initial implant 45 ± 5 mg, n = 8
Experimental: Ten million tumor cells were placed on the surface of each CAM and were cultured for one week. The resulting tumors were excised and cut into 50 mg fragments. These fragments were placed on additional CAMs and treated topically or systemically by intravenous injection the following day with the test agents. […] Each treatment group incorporated at least ten tumors per experiment. Tumors were then excised from the egg and tumor weights were determined for each tumor.

Q: How did the “Average # of Branch Points” value [1] turn out when “FGF2: recombinant human fibroblast growth factor basic, angiogenic stimulus” was run?
A: 264 + 18

Q: And the “Cell Tube Formation (area, mm^2)” value [2]?
A: 2.50 ± 0.28 mm^2

Q: What about the “Cell Tube Formation (length, mm)” value [2] of the same substance?
A: 79.83 ± 8.66 mm

Q: How did the “Mean tumor weight (mg) ± SEM” value (Colon tumor) turn out when “r-TFPI: r-tissue factor pathway inhibitor” was run?
A: 38 ± 8 mg
